According to PubChem BioAssay (NCI):
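Assay format: 96-well plates, 48-hour exposure. TGI: total growth inhibition.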

Columns and labels:
Experiment in all cases: NCI anticancer screen, dose series, 48 h
[1] = test system: OVCAR-5 ovarian
[2] = test system: SF-268 CNS
[3] = test system: NCI-H23 lung
[4] = test system: A498 renal
[5] = test system: HT29 colon
[6] = test system: MALME-3M melanoma
[7] = test system: HOP-92 NSCLC
[8] = test system: SNB-75 CNS
[9] = test system: HL-60(TB) leukemia
[10] = test system: NCI-H460 lung
[11] = test system: MOLT-4 leukemia
[12] = test system: MDA-MB-231 breast
[13] = test system: MCF7 breast
[14] = test system: NCI/ADR-RES ovarian
[15] = test system: RXF 393 renal
[16] = test system: PC-3 prostate
[17] = test system: DU-145 prostate

Structure (SMILES)	TGI [1] [µM]	TGI [2] [µM]	TGI [3] [µM]	TGI [4] [µM]	TGI [5] [µM]	TGI [6] [µM]	TGI [7] [µM]	TGI [8] [µM]	TGI [9] [µM]	TGI [10] [µM]	TGI [11] [µM]	TGI [12] [µM]	TGI [13] [µM]	TGI [14] [µM]	TGI [15] [µM]	TGI [16] [µM]	TGI [17] [µM]
[N-]=[N+]=NC1(Cc2ccccc2)C(=O)Nc2ccccc2C1=O (stereo not drawn)	> 100	> 100	> 100	> 100	> 100	> 100	> 100	> 100	> 100	> 100	> 100						
C=C(C)C1Cc2c(cc3c(c2O)c(=O)c2ccccc2n3C)O1 (stereo not drawn)	26.1	14.2	5.34	22.1	7.32	3.41	21.3	17		19	1.99	6.72	17	8.19	8.52	19.3	
O=C(Oc1ccc(C(c2c(O)c3ccccc3oc2=O)c2c(O)c3ccccc3oc2=O)cc1)c1ccc(C(=O)c2ccccc2)cc1	38.3	66.5	35.3		31.8			32.4		45.6	41.3	> 100	> 100	34.8	83.6	35.8	> 100
COc1cc2c(cc1OC)C1CN3CCCC3C(O)C1c1cc(OC)c(OC)cc1-2 (stereo not drawn)	> 100	> 100	> 100	> 100	> 100	> 100	> 100		> 100	> 100	> 100	> 100	> 100	> 100	> 100		> 100
CC(C)(C)OC(=O)NC(Cc1ccc(OC(C)(C)C)cc1)C(=O)N[C@H]1CC[C@H](C(=O)O)C1 (stereo partly drawn)	> 100	> 100	> 100	> 100	> 100			> 100	> 100	> 100	> 100	> 100	> 100	> 100		> 100	> 100
CCOC(=O)/C1=C(\C)N(Cc2ccccc2)C(=O)c2ccccc2C(=O)c2c(OC(C)=O)ccc(OC(C)=O)c21	> 100	> 100		> 100	> 100	> 100	43.9	> 100	79.1	> 100	> 100	> 100	58.6	> 100	93		
O=c1nc(N2CCCCC2)sc2[nH]c3ccccc3c12	24.8	> 100	26.2	> 100	> 100	> 100	> 100	> 100	> 100	> 100	> 100	> 100		25.7		> 100	> 100
CN1CC=C(C#CC(C)(C)O)CC1	> 37.5	> 37.5	> 37.5		> 37.5	> 37.5		> 37.5	> 37.5	> 37.5	> 37.5	> 37.5	> 37.5	> 37.5	> 37.5	> 37.5	> 37.5
COc1ccc(NCc2cccc3c(=O)c4ccc(Cl)cc4oc23)cc1	> 100		> 100	> 100		> 100	> 100	> 100			> 100	> 100	> 100	> 100		> 100	
O=C1NC(=Nc2ccccc2Cl)N/C1=C\c1c(Cl)cccc1Cl	83.7	> 100	> 100	> 100	> 100	> 100	61.8	76.3	54.2	68.2	> 100		> 100	86	68	76.8	> 100
CC(=O)Nc1ccc2cc(C#N)c(=O)[nH]c2n1	> 100	> 100	> 100	> 100		> 100	> 100	> 100		> 100	> 100	> 100	> 100	> 100	> 100	> 100	
CN(C)C12C=CC=CC3=C(c4ccccc4)C(c4ccccc4)=C(c4ccccc4)C31c1ccccc1C2 (stereo not drawn)	> 100	> 100			> 100			> 100	> 100	> 100	> 100	> 100	> 100	> 100		> 100	
C=C1[C@@H](OC(C)=O)/C=C/C2C3C(=O)[C@@](C)(OC(C)=O)[C@H]([C@H](OC(C)=O)[C@]4(O)[C@@H](C)C(=O)O[C@H]4[C@H]1Cl)[C@@]23C (stereo partly drawn)	> 100	> 100	> 100	> 100	> 100	> 100	> 100	> 100		> 100	> 100	> 100		> 100	> 100	> 100	> 100
O=S(=O)(Cc1ccccc1)c1nnc(S(=O)(=O)c2ccc(Cl)cc2)s1	56.8	63.4	54.2	43.6	60.7			32.5		48.2	> 100	91.7	> 100	77.9	33.8	46.7	34.3
COC1(OC)CCCCCCCCC(OC)(OC)CCCCCCCC1	> 100	> 100	> 100	> 100	> 100	> 100	> 100	> 100	> 100	> 100			> 100	> 100	> 100	> 100	> 100
